Measurements taken from ChEMBL document CHEMBL4382262, “Structurally Simple, Readily Available Peptidomimetic 1-Benzyl-5-methyl-4-( n-octylamino)pyrimidin-2(1 H)-one Exhibited Efficient Cardioprotection in a Myocardial Ischemia (MI) Mouse Model” (J Med Chem, 2018).
Calls of active or inactive are those of the source. The calls are words filed in the database; no cut-off is given here.

Assays:
[1] = test system: Mus musculus; assay: (§1) Cardioprotective activity in C57BL mouse model of left anterior descending coronary artery ligation-induced myocardial ischemia assessed as reduction in serum LDH levels at 0.3 mg/kg, iv treated 1 hr after by left anterior descending coronary artery ligation and measured after 7 days post LAD; assay type: functional, organism-based
[2] = target: T1, Toll-like receptor 4 (Rattus norvegicus) (UniProt Q9QX05); assay: Inhibition of TLR4 in Sprague-Dawley rat cardiomyocytes assessed as reduction in hypoxia-induced TRAM protein expression at 20 uM preincubated for 1 hr followed by hypoxia for 3 hrs by Western blot analysis relative to untreated control; assay type: cell-based
T1 sequence (whole entry): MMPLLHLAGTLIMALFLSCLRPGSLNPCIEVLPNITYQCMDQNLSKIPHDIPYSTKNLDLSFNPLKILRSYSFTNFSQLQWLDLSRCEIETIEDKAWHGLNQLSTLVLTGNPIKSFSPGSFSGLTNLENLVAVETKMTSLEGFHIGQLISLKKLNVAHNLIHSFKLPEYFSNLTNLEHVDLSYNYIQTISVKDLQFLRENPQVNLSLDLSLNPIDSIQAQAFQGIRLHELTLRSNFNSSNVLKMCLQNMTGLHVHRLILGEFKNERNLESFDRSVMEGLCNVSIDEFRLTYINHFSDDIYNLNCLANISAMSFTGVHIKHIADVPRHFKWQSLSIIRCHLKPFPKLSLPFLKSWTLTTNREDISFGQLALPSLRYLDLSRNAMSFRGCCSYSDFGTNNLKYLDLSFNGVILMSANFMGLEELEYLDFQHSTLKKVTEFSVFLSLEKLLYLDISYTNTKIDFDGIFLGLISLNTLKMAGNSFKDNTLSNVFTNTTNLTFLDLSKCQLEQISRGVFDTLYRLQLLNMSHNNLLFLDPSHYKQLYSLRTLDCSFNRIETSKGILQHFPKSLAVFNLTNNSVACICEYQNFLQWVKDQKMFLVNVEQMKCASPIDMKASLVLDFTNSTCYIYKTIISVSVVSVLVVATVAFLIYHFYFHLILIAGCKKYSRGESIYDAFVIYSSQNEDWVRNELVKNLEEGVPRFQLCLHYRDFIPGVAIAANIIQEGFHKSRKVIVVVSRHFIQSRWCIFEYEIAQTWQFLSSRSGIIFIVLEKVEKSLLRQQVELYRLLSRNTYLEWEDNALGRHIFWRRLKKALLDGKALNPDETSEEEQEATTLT

[3] = Reduction in hypoxia-induced TLR4 protein expression in Sprague-Dawley rat cardiomyocytes at 20 uM preincubated for 1 hr followed by hypoxia for 3 hrs by Western blot analysis relative to untreated control; assay type: functional, Cardiac muscle cell
[4] = target: T1, Toll-like receptor 4 (Rattus norvegicus); assay: Inhibition of TLR4 in Sprague-Dawley rat cardiomyocytes assessed as reduction in hypoxia-induced IL-1beta mRNA expression at 20 uM preincubated for 1 hr followed by hypoxia for 3 hrs by RT-qPCR analysis; assay type: cell-based
[5] = target: T1, Toll-like receptor 4 (Rattus norvegicus); assay: Inhibition of TLR4 in hypoxia-induced Sprague-Dawley rat cardiomyocytes assessed as increase in IkappaB-alpha protein expression at 20 uM preincubated for 1 hr followed by hypoxia for 3 hrs by Western blot analysis relative to untreated control
[6] = test system: Mus musculus; assay: Cardioprotective activity in C57BL mouse model of left anterior descending coronary artery ligation-induced myocardial ischemia assessed as reduction in troponin levels at 0.3 mg/kg, iv pretreated for 1 hr followed by left anterior descending coronary artery ligation; assay type: functional, organism-based
[7] = target: T1, Toll-like receptor 4 (Rattus norvegicus); assay: Inhibition of TLR4 in Sprague-Dawley rat cardiomyocytes assessed as reduction in hypoxia-induced LDH release at 5 uM preincubated for 1 hr followed by hypoxia for 3 hrs by NADH detection based colorimetric analysis; assay type: cell-based
[8] = test system: Mus musculus; assay: (§2) Cardioprotective activity in C57BL mouse model of left anterior descending coronary artery ligation-induced myocardial ischemia assessed as reduction in creatine kinase levels at 0.3 mg/kg, iv treated 1 hr after by left anterior descending coronary artery ligation and measured after 7 days post LAD; assay type: functional, organism-based
[9] = test system: Mus musculus; assay: Cardioprotective activity in C57BL mouse model of left anterior descending coronary artery ligation-induced myocardial ischemia assessed as reduction in heart infarct size at 0.05 to 1 mg/kg, iv pretreated for 1 hr followed by left anterior descending coronary artery ligation; assay type: functional, organism-based
[10] = target: T1, Toll-like receptor 4 (Rattus norvegicus); assay: Inhibition of TLR4 in Sprague-Dawley rat cardiomyocytes assessed as reduction in hypoxia-induced creatine kinase levels at 5 uM preincubated for 1 hr followed by hypoxia for 3 hrs by NADP reduction based colorimetric analysis; assay type: cell-based
[11] = Hepatotoxicity in C57BL mouse model of left anterior descending coronary artery ligation-induced myocardial ischemia assessed as effect on serum AST levels at 0.05 to 1 mg/kg, iv pretreated for 1 hr followed by left anterior descending coronary artery ligation; assay type: toxicity, organism-based; details: in vivo
[12] = test system: Mus musculus; assay: Cardioprotective activity in C57BL mouse model of left anterior descending coronary artery ligation-induced myocardial ischemia assessed as reduction in heart infarct size at 0.3 mg/kg, iv treated 1 hr after left anterior descending coronary artery ligation and measured after 7 days post LAD; assay type: functional, organism-based
[13] = test system: Mus musculus; assay: Cardioprotective activity in C57BL mouse model of left anterior descending coronary artery ligation-induced myocardial ischemia assessed as reduction in heart infarct size at 0.3 mg/kg, iv pretreated for 1 hr followed by left anterior descending coronary artery ligation; assay type: functional, organism-based
[14] = test system: Mus musculus; assay: as §1, with “fibrosis” for “serum LDH levels”, “after” for “after by”, “LAD by hematoxylin/eosin staining based light microscopy” for “LAD”; assay type: functional, organism-based
[15] = target: T1, Toll-like receptor 4 (Rattus norvegicus); assay: Inhibition of TLR4 in Sprague-Dawley rat cardiomyocytes assessed as reduction in hypoxia-induced creatine kinase levels at 10 uM preincubated for 1 hr followed by hypoxia for 3 hrs by NADP reduction based colorimetric analysis; assay type: cell-based
[16] = target: T1, Toll-like receptor 4 (Rattus norvegicus); assay: Inhibition of TLR4 in Sprague-Dawley rat cardiomyocytes assessed as reduction in hypoxia-induced creatine kinase levels at 20 uM preincubated for 1 hr followed by induction of hypoxia measured after 3 hrs by NADP reduction based colorimetric analysis; assay type: cell-based
[17] = test system: Mus musculus; assay: Cardioprotective activity in C57BL mouse model of left anterior descending coronary artery ligation-induced myocardial ischemia assessed as reduction in creatine kinase levels at 0.3 mg/kg, iv pretreated for 1 hr followed by left anterior descending coronary artery ligation; assay type: functional, organism-based
[18] = test system: Mus musculus; assay: Cardioprotective activity in C57BL mouse model of left anterior descending coronary artery ligation-induced myocardial ischemia assessed as survival rate at 0.3 mg/kg, iv treated 1 hr after left anterior descending coronary artery ligation and measured after 7 days post LAD; assay type: functional
[19] = target: T1, Toll-like receptor 4 (Rattus norvegicus); assay: Inhibition of TLR4 in Sprague-Dawley rat cardiomyocytes assessed as reduction in hypoxia-induced creatine kinase levels at 30 uM preincubated for 1 hr followed by hypoxia for 3 hrs by NADP reduction based colorimetric analysis; assay type: cell-based
[20] = target: T1, Toll-like receptor 4 (Rattus norvegicus); assay: Inhibition of TLR4 in Sprague-Dawley rat cardiomyocytes assessed as reduction in hypoxia-induced LDH levels by measuring NADH levels at 20 uM preincubated for 1 hr followed by induction of hypoxia measured after 3 hrs by colorimetric analysis; assay type: cell-based
[21] = test system: Mus musculus; assay: Cardioprotective activity in C57BL mouse model of left anterior descending coronary artery ligation-induced myocardial ischemia assessed as reduction in heart infarct size at 0.3 mg/kg, iv treated 1 hr after left anterior descending coronary artery ligation and measured after 24 hrs post LAD; assay type: functional, organism-based
[22] = test system: Mus musculus; assay: as §2, with “levels levels” for “levels”, “24 hrs” for “7 days”; assay type: functional, organism-based

SMILES: CCCCCCCCNc1nc(=O)n(Cc2ccccc2)cc1C
- Activity [1]: Active
- fold change (FC) [2]: 2.8
- fold change (FC) [3]: 2.7
- fold change (FC) [4]: 15
- fold change (FC) [5]: 3.3
- Activity [6]: Active
- inhibition [7]: inactive
- Activity [8]: Active
- Activity [9]: Active
- inhibition [10]: inactive
- Activity [11]: Non-Toxic
- Activity [12]: Active
- Activity [13]: Active
- Activity [14]: Active
- inhibition [15]: Active
- inhibition [16]: Active
- Activity [17]: Active
- survival at 0.3 mg/kg [18]: 100%
- inhibition [19]: Active
- inhibition [20]: Active
- Activity [21]: inactive
- Activity [22]: Active
